What was measured:
Carragenine edema = assay: Edema induced by different substances: carragenine (Table 3); format: in vivo
From the text: (§1) |Edema induced by different substances.

Kaolin edema = assay: Edema induced by different substances: kaolin (Table 3); format: in vivo
From the text: as §1

Yeast edema = assay: Edema induced by different substances: yeast (Table 3); format: in vivo
From the text: |Edema induced by different substances. | % edema inhibition

Serotonin edema = assay: Edema induced by different substances: serotonin (Table 3); format: in vivo
From the text: as §1

Dextrose edema = assay: Edema induced by different substances: dextrose (Table 3); format: in vivo
From the text: as §1

[1] = tested on: capillary permeability (Histamine); assay: Effect on the capillary permeability, histamine; format: in vivo; conditions: 200 mg/Kg p.o., checks 21.33
From the text: (§2) |Effect on the capillary permeability

[2] = tested on: capillary permeability (Dextran); assay: Effect on the capillary permeability, dextran; format: in vivo; conditions: 200 mg/Kg p.o., checks 14.83
From the text: as §2

[3] = tested on: Cotton-pellets induced granuloma; assay: Cotton-pellets induced granuloma; format: in vivo; conditions: 200 mg/Kg p.o.
From the text: | Cotton-pellets induced granuloma.

[4] = tested on: Carragenine induced edema; assay: Activity on carragenine induced edema (Table 9); format: in vivo
From the text: |Activity on carragenine induced edema.

[5] = tested on: Hot plate, endurance time at 52° C.; assay: Analgesic activity, Hot plate (I); format: in vivo; conditions: 50 mg/Kg p.o.
Method: (§3) Dose endurance time at 52° C. over checks

[6] = tested on: Carragenine induced edema; assay: Anti-inflammatory activity on carragenine induced edema (Table 11); format: in vivo
[7] = tested on: capillary permeability (Serotonin); conditions: 200 mg/Kg p.o., checks 18.16
[8] = British Patent No. 847.779; cited from earlier work
[9] = tested on: Carragenine induced edema; assay: Carragenine induced edema, first test (Table 2); format: in vivo
From the text: |ANTI-INFLAMMATORY ACTIVITY. |Carragenine induced edema, first test.

Joint's diameter = Joint's diameter in arthritis (Table 7); format: in vivo; design: unit not given here
SH Groups in serum = assay: SH groups in serum (Table 8); format: in vivo; conditions: arthritis checks 70, 77
[10] = tested on: erytrocytes sedimetation rate (ESR); assay: Erytrocytes sedimetation rate (ESR) (Table 8); format: in vivo; conditions: arthritis checks 41, 56
ulcerogenic effect = conditions: dose 5 mg; cited from earlier work
[11] = tested on: Freund's adjuvant induced arthritis; assay: Freund's adjuvant induced arthritis, edema inhibition
in vivo = conditions: po, rat, p.o., read-out: DL50 (the source's name)
[12] = tested on: Hot plate, endurance time at 52° C.; assay: Analgesic activity, Hot plate (II); format: in vivo
Method: as §3

pain threshold = assay: Analgesic activity, RANDALL-SELLITO pain threshold; format: in vivo
From the text: | RANDALL-SELLITO pain threshold

Structure (SMILES): CC=CCC(C(=O)O)c1ccc(-c2ccccc2)cc1 (racemic) [SCR 157, 2-(4-biphenyl)-4-hexenoic acid]
- % edema inhibition (Carragenine edema; 50 mg/Kg p.o.): 8%
- % edema inhibition (Carragenine edema; 100 mg/Kg p.o.): 43%
- % edema inhibition (Carragenine edema; 200 mg/Kg p.o.): 64%
- % edema inhibition (Kaolin edema; 50 mg/Kg p.o.): 42%
- % edema inhibition (Kaolin edema; 100 mg/Kg p.o.): 49%
- % edema inhibition (Kaolin edema; 200 mg/Kg p.o.): 57%
- % edema inhibition (Yeast edema; 50 mg/Kg p.o.): 11%
- % edema inhibition (Yeast edema; 100 mg/Kg p.o.): 22%
- % edema inhibition (Yeast edema; 200 mg/Kg p.o.): 28%
- % edema inhibition (Serotonin edema; 50 mg/Kg p.o.): 0%
- % edema inhibition (Serotonin edema; 100 mg/Kg p.o.): 16%
- % edema inhibition (Serotonin edema; 200 mg/Kg p.o.): 22%
- % edema inhibition (Dextrose edema; 50 mg/Kg p.o.): 0%
- % edema inhibition (Dextrose edema; 100 mg/Kg p.o.): 8%
- % edema inhibition (Dextrose edema; 200 mg/Kg p.o.): 8%
- Effect on the capillary permeability, .0. m.micron [1]: 20.28 m.micron
- Effect on the capillary permeability, .0. m.micron [2]: 14.85 m.micron
- % inhibition [3]: 29%
- Inhibition % ([4]; 50 mg/Kg p.o.): 10%
- Inhibition % ([4]; 75 mg/Kg p.o.): 31%
- Inhibition % ([4]; 112,5 mg/Kg p.o.): 24%
- endurance time at 52° C. over checks ([5]; 1 hour): 3
- endurance time at 52° C. over checks ([5]; 2 hours): 26
- % inhibition ([6]; 50 mg/Kg p.o.): 33%
- Effect on the capillary permeability, .0. m.micron [7]: 16.57 m.micron
- anticholesterinemic and antiliphaemic properties [8]: exhibits properties of anticholesterinemic and antiliphaemic agent

Structure (SMILES): COc1ccc2c(c1)c(CC(=O)O)c(C)n2C(=O)c1ccc(Cl)cc1 [Indomethacin]
- % inhibition ([9]; 2.5 mg/Kg p.o.): 33%
- % inhibition ([9]; 5 mg/Kg p.o.): 36%
- % inhibition ([9]; 10 mg/Kg p.o.): 48%
- Joint's diameter (Joint's diameter; 1 mg/Kg p.o., 1 week, arthritis checks 0.48, 0.38): 0.38
- Joint's diameter (Joint's diameter; 1 mg/Kg p.o., 2 weeks, arthritis checks 0.71, 0.75): 0.50
- Joint's diameter (Joint's diameter; 1 mg/Kg p.o., 3 weeks, arthritis checks 0.81, 0.79): 0.49
- Joint's diameter (Joint's diameter; 1 mg/Kg p.o., 4 weeks, arthritis checks 0.85, 0.89): 0.55
- Joint's diameter (Joint's diameter; 2 mg/Kg p.o., 1 week, arthritis checks 0.48, 0.38): 0.22
- Joint's diameter (Joint's diameter; 2 mg/Kg p.o., 2 weeks, arthritis checks 0.71, 0.75): 0.39
- Joint's diameter (Joint's diameter; 2 mg/Kg p.o., 3 weeks, arthritis checks 0.81, 0.79): 0.34
- Joint's diameter (Joint's diameter; 2 mg/Kg p.o., 4 weeks, arthritis checks 0.85, 0.89): 0.34
- SH groups diminution in % (SH Groups in serum; 1 mg/Kg p.o.): 78%
- SH groups diminution in % (SH Groups in serum; 2 mg/Kg p.o.): 50%
- E.S.R. ([10]; 1 mg/Kg p.o.): 38
- E.S.R. ([10]; 2 mg/Kg p.o.): 15
- % inhibition ([6]; 5 mg/Kg p.o.): 38%
- ulcerogenic effect (ulcerogenic effect): exhibits surely ulcerogenic effect
- Edema inhibition % ([11]; 1 mg/Kg p.o., 2 days): 49%
- Edema inhibition % ([11]; 1 mg/Kg p.o., 4 days): 7%
- Edema inhibition % ([11]; 1 mg/Kg p.o., 8 days): 27%
- Edema inhibition % ([11]; 1 mg/Kg p.o., 12 days): 58%
- Edema inhibition % ([11]; 1 mg/Kg p.o., 16 days): 60%
- Edema inhibition % ([11]; 1 mg/Kg p.o., 20 days): 37%
- Edema inhibition % ([11]; 1 mg/Kg p.o., 24 days): 57%
- Edema inhibition % ([11]; 2 mg/Kg p.o., 2 days): 49%
- Edema inhibition % ([11]; 2 mg/Kg p.o., 4 days): 35%
- Edema inhibition % ([11]; 2 mg/Kg p.o., 8 days): 51%
- Edema inhibition % ([11]; 2 mg/Kg p.o., 12 days): 48%
- Edema inhibition % ([11]; 2 mg/Kg p.o., 16 days): 71%
- Edema inhibition % ([11]; 2 mg/Kg p.o., 20 days): 73%
- Edema inhibition % ([11]; 2 mg/Kg p.o., 24 days): 71%

Structure (SMILES): CC=CCC(C(=O)O)c1ccc(-c2ccc(F)cc2)cc1 (centres unmarked) [SCR 159, 2-[4-biphenylyl-(4' fluoro)]4-hexenoic acid]
- LD50 (in vivo): 900 mg/kg
- Inhibition % ([4]; 53 mg/Kg p.o.): 29%
- Inhibition % ([4]; 80 mg/Kg p.o.): 26%
- Inhibition % ([4]; 120 mg/Kg p.o.): 26%
- endurance time at 52° C. over checks ([5]; 2 hours): 38
- endurance time at 52° C. over checks ([12]; Hot plate (II), 35,6 mg/Kg p.o., 1 hour): 22
- endurance time at 52° C. over checks ([12]; Hot plate (II), 35,6 mg/Kg p.o., 2 hours): 43
- endurance time at 52° C. over checks ([12]; Hot plate (II), 53,45 mg/Kg p.o., 1 hour): 45
- endurance time at 52° C. over checks ([12]; Hot plate (II), 53,45 mg/Kg p.o., 2 hours): 29
- endurance time at 52° C. over checks ([12]; Hot plate (II), 80,18 mg/Kg p.o., 1 hour): 26
- RANDALL-SELLITO pain threshold over checks (pain threshold; 23,7 mg/Kg p.o., 1 hour): 55
- RANDALL-SELLITO pain threshold over checks (pain threshold; 23,7 mg/Kg p.o., 2 hours): 7
- RANDALL-SELLITO pain threshold over checks (pain threshold; 35,6 mg/Kg p.o., 1 hour): 49
- RANDALL-SELLITO pain threshold over checks (pain threshold; 35,6 mg/Kg p.o., 2 hours): 32
- RANDALL-SELLITO pain threshold over checks (pain threshold; 53,45 mg/Kg p.o., 1 hour): 47
- RANDALL-SELLITO pain threshold over checks (pain threshold; 53,45 mg/Kg p.o., 2 hours): 16
- % inhibition ([6]; 50 mg/Kg p.o.): 32%

Reference: patent US4562287A, “2-(4-Biphenylyl)-4-hexenoic acid and derivatives thereof having anti-inflammatory activity” (priority 1983, dated 1985)
